From patent US10946027B2, “Tianeptine oxalate salts and polymorphs” (Tonix Pharma Holdings Limited, priority 2016, dated 2021)
Where two headings read alike, the source gives them in different places.

SMILES: CN1c2ccccc2C(NCCCCCCC(=O)O)c2ccc(Cl)cc2S1(=O)=O.O=C(O)C(=O)O (centres unmarked) [Tianeptine mono-oxalate Form A, Tianeptine Mono-Oxalate Form A]
- solid form stability (40-60° C., high humidity (75% RH)): started to convert into tianeptine hemi-oxalate Form A
- solid form stability (milled without water): stable
- solid form stability (stored at 25° C. and 60-75% RH): stable
- solid form stability (stored at 40-60° C. without humidity (RH≈0%)): stable
- solid form stability (water kneading): started to convert into tianeptine hemi-oxalate Form A
